Assay results: PMC10744269, “Frentizole, a Nontoxic Immunosuppressive Drug, and Its Analogs Display Antitumor Activity via Tubulin Inhibition” (International Journal of Molecular Sciences, 2023)

Legend:
[1] = test system: HeLa (cervix epithelioid carcinoma cells); assay: MTT antiproliferative assay, HeLa; type: cell-based, human; details: Homo sapiens, HeLa, 72 h after drug treatment, threshold 10 μM
Procedure: (§1) The cell proliferation inhibitory activity of frentizole and the synthesized analogs 2–10 against representative human cancer cell lines was assayed using the MTT method (Table 1). […] For those compounds inhibiting cell proliferation by more than 40% with respect to the untreated controls at the threshold concentration, the IC50 values were calculated by measuring the proliferation inhibition in a range of concentrations from 100 to 0.001 μM and adjusting the resulting curves to sigmoidal dose–response curves. The selected cell lines were HeLa (cervix epithelioid carcinoma cells), one of the most frequent kinds of cancer, with good sensitivity against antimitotic agents, and the glioblastoma cell lines U87MG and A172. To study the selectivity of the compounds toward cancer cells versus nontumor cells, the compounds were also evaluated against the nontumorigenic cell line HEK-293 (human embryonic kidney cells) and the murine macrophage cell line J774. Sulfonamide ABT-751, as a representative of the colchicine-site ligands, and the first-line drug for the treatment of glioblastoma multiforme temozolomide (TMZ) were used as reference compounds.
(§2) The cell lines were from ATTC (Manassas, VA, USA). HeLa (human cervix epithelioid carcinoma), U87 MG (human glioblastoma), A172 (human glioblastoma), and HEK-293 (human embryonic kidney) were grown in Dulbecco’s modified Eagle’s medium (DMEM, Gibco, Waltham, MA, USA), supplemented with 10% (v/v) heat-inactivated fetal bovine serum (HIFBS, Sigma-Aldrich, St. Louis, MO, USA), 2 mM L-glutamine, 100 μg/mL streptomycin, and 100 units/mL penicillin (Gibco, Waltham, MA, USA) at 37 °C in humidified 95% air and 5% CO2. The cells were periodically tested for Mycoplasma infection using MycoAlert kit (Lonza, Norwest, Australia), and only mycoplasma-free cells were employed in the experiments.
(§3) The effect of the compounds on the proliferation of human tumor cell lines was determined as previously described using the MTT reagent 3-[4,5-dimethylthiazol-2-yl]-2,5-diphenyltetrazolium bromide, MTT Thiazolyl Blue Tetrazolium Bromide, Sigma-Aldrich, St. Louis, MO, USA) dissolved in PBS at 5 mg/mL, according to the manufacturer’s instructions. The cells were incubated in 96-well plates (100 μL/well), in complete DMEM or RPMI 1640 medium (see above), at 37 °C and 5% CO2 atmosphere for 24 h to allow for cell attachment to the plate at the following concentrations: 30,000 cells/mL (U87MG, A172, J774, and HEK-293 cells) or 15,000 cells/mL (HeLa cells). Then, every compound was added (10 μL/well) to a final concentration of 10 μM. Untreated cells were used as negative controls. The antiproliferative activity of the compounds was measured 72 h after drug exposure using the MTT assay. The IC50 value (the drug concentration required to inhibit 50% of the cell growth in respect the untreated control) was determined for those compounds showing antiproliferative effects in the initial screening at 10 μM. For this purpose, the compounds were used at different concentrations ranging from 10^−10 to […]. Measurements were performed in triplicate and each experiment was repeated three times. The IC50 values were determined using Origin software (OriginLab, Washington, DC, USA).

[2] = test system: A172 (human glioblastoma); assay: MTT antiproliferative assay, A-172; type: cell-based; details: 72 h after drug treatment, threshold 10 μM
Procedure: as §1, §2, §3

[3] = test system: U87 MG (human glioblastoma); assay: MTT antiproliferative assay, U-87 MG; type: cell-based; details: 72 h after drug treatment, threshold 10 μM
Procedure: as §1, §2, §3

[4] = test system: nontumorigenic cell line HEK-293 (human embryonic kidney cells); assay: MTT antiproliferative assay, HEK-293; type: cell-based; details: HEK293, 72 h after drug treatment, threshold 10 μM
Procedure: as §1, §2, §3

[5] = test system: murine macrophage cell line J774; assay: MTT antiproliferative assay, J774; type: cell-based; details: Mus musculus, 72 h after drug treatment, threshold 10 μM, read-out: IC50 J-774
Procedure: as §1, §3

SMILES	IC50 [1] [µM]	IC50 [2] [µM]	IC50 [3] [µM]	melting point [°C]	IC50 [4] [µM]	IC50 [5] [µM]
Cc1ccc2nc(NC(=O)c3ccccc3)sc2c1 [Compound 3a, N-(6-methylbenzo[d]thiazol-2-yl)benzamide]	> 10	> 10	> 10	222 to 224	> 10	> 10
Cc1cc2nc(NC(=O)c3ccccc3)sc2cc1C [Compound 3c, N-(5,6-dimethylbenzo[d]thiazol-2-yl)benzamide]	> 10	> 10	> 10	210	5.68	7.73
Cc1cc2nc(N(C)C(=O)c3ccccc3)sc2cc1C [Compound 3ca, N-(5,6-dimethylbenzo[d]thiazol-2-yl)-N-methylbenzamide]	> 10	> 10	> 10	231	> 10	> 10
COc1ccc2nc(NC(=O)c3ccccc3)sc2c1 [Compound 3e, N-(6-methoxybenzo[d]thiazol-2-yl)benzamide]	> 10	> 10	> 10		> 10	> 10
Cc1ccc2nc(NC(=O)Cc3ccccc3)sc2c1 [Compound 4a, N-(6-methylbenzo[d]thiazol-2-yl)-2-phenylacetamide]	> 10	> 10	> 10	190 to 191	> 10	> 10
CCNC(=O)Nc1nc2ccc(C)cc2s1 [Compound 5a, 1-Ethyl-3-(6-methylbenzo[d]thiazol-2-yl)urea]	> 10	> 10	> 10	312 to 313	> 10	> 10
CCNC(=O)Nc1nc2cc(C)c(C)cc2s1 [Compound 5c, 1-(5,6-Dimethylbenzo[d]thiazol-2-yl)-3-ethylurea]	> 10	> 10	> 10		> 10	> 10
CCNC(=O)Nc1nc2ccc(OC)cc2s1 [Compound 5e, 1-Ethyl-3-(6-methoxybenzo[d]thiazol-2-yl)urea]	> 10	> 10	> 10		> 10	> 10
Cc1ccc2nc(NC(=O)Oc3ccccc3)sc2c1 [Compound 9a, Phenyl (6-methylbenzo[d]thiazol-2-yl)carbamate]	> 10	> 10	> 10	251 to 253	> 10	> 10

Second part, led by results:

IC50 [1] [µM]	IC50 [2] [µM]	IC50 [3] [µM]	melting point [°C]	SMILES	IC50 [4] [µM]	IC50 [5] [µM]
> 10	> 10	> 10	327 to 329	Cc1ccc2nc(NC(=O)Nc3ccccc3)sc2c1 [Compound 6a, 1-(6-Methylbenzo[d]thiazol-2-yl)-3-phenylurea]	> 10	1.97
> 10	> 10	> 10		Cc1cc(Br)c2nc(NC(=O)Nc3ccccc3)sc2c1 [Compound 6b]	> 10	> 10
> 10	> 10	> 10	> 290	Cc1cc2nc(NC(=O)Nc3ccccc3)sc2cc1C [Compound 6c, 1-(5,6-Dimethylbenzo[d]thiazol-2-yl)-3-phenylurea]	> 10	0.27
> 10	> 10	> 10	179	Cc1cc2nc(N(C)C(=O)Nc3ccccc3)sc2cc1C [Compound 6ca, 1-(5,6-Dimethylbenzo[d]thiazol-2-yl)-1-methyl-3-phenylurea]	> 10	> 10
> 10	> 10	> 10	189	COc1ccc2nc(N(C)C(=O)Nc3ccccc3)sc2c1 [Compound 6ea, 1-(6-Methoxybenzo[d]thiazol-2-yl)-1-methyl-3-phenylurea]	> 10	> 10
> 10	> 10	> 10	283.4 to 285.7	Cc1ccc2nc(NC(=O)NCc3ccccc3)sc2c1 [Compound 7a, 1-Benzyl-3-(6-methylbenzo[d]thiazol-2-yl)urea]	> 10	> 10
> 10	> 10	> 10		Cc1cc(Br)c2nc(NC(=O)NCc3ccccc3)sc2c1 [Compound 7b, 1-Benzyl-3-(4-bromo-6-methylbenzo[d]thiazol-2-yl)urea]	> 10	> 10
> 10	> 10	> 10	252.8 to 254	CCOC(=O)Nc1nc2ccc(C)cc2s1 [Compound 8a, Ethyl (6-methylbenzo[d]thiazol-2-yl)carbamate]	> 10	0.26
> 10	> 10	> 10	177 to 178	CCOC(=O)Nc1nc2c(Br)cc(C)cc2s1 [Compound 8b, Ethyl (4-bromo-6-methylbenzo[d]thiazol-2-yl)carbamate]	> 10	> 10
			100	Cc1cc(Br)c2c(c1)SC(NC(=O)Oc1ccccc1)N2C(=O)Oc1ccccc1 (stereo not drawn) [Compound 9b, Phenyl (4-bromo-6-methyl-N-phenoxycarbonylbenzo[d]thiazol-2-yl)carbamate]		
> 10	> 10	> 10	254 to 255	Cc1ccc2nc(NC(=O)OCc3ccccc3)sc2c1 [Compound 10a, Benzyl (6-methylbenzo[d]thiazol-2-yl)carbamate]	> 10	
> 10	> 10	> 10		Cc1cc(Br)c2nc(NC(=O)OCc3ccccc3)sc2c1 [Compound 10b]	> 10	> 10
